Results from US5654320A, “Indazolecarboxamides” (Eli Lilly and Company, priority 1995, dated 1997).
Structures can show the parent of a compound that is named as a salt.

Tested on: 5-HT4 receptor
Experiment: not given
Settings: presently known compound; cited from earlier work
In the case of `COc1cc(N)c(Cl)cc1C(=O)NC1CCN(CCCOc2ccc(F)cc2)CC1OC` (centres unmarked) [cisapride], the “affinity at the 5-HT4 receptor” value is listed as “high affinity”.

Biological target: T1, 5-HT4 receptor (Rattus norvegicus, UniProt Q62758)
T1 construct: esophagus smooth muscle, freshly removed from male Wistar rats; from tissue; host or cells: esophagus smooth muscle of male Wistar rats
T1 sequence (Q62758 whole entry): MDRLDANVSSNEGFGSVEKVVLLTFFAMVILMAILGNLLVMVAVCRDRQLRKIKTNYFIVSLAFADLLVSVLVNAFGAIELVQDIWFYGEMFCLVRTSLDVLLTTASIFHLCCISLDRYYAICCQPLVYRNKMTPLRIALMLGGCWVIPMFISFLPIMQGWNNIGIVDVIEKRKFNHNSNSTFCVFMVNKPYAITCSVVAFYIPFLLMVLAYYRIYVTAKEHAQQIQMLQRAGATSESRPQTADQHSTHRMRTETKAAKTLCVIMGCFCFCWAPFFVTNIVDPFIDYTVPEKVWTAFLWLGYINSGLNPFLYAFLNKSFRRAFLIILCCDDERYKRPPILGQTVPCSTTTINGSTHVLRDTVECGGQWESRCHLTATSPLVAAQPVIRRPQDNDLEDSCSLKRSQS
Experiment: 5-HT4 receptor antagonism in carbamylcholine-contracted isolated esophagus smooth muscle (antagonism of serotonin-induced relaxation)
Parameters: species or system male Wistar rats
Settings: not given
Experimental: The test was carried out in esophagus smooth muscle, freshly removed from male Wistar rats weighing 250-300 g each. The rats were killed by cervical dislocation, and the esophagus was removed and dissected free of connective tissue. The esophagi were used as longitudinal preparations--obtaining two preparations from each animal. The tissues were tied with thread at each end with the lower end being tied to a stationary glass rod and the upper end to a force transducer.
Tissues were mounted in organ baths containing 10 mL of modified Krebs' solution of the following composition (millimolar) NaCl 118.2; KCl 4.6; CaCl2.2H2 O 1.6; KH2 PO4 1.2; MgSO4 1.2; dextrose 10.0; and NaHCO3 24.8. Tissue bath solutions were maintained at 37° C. and aerated with 95% O2 -5% CO2. Tissues were placed under optimum resting force, 1 g, and were allowed to equilibrate for 1 hr before exposure to drugs. Isometric contractions were recorded as changes in grams of force on the Modular Instruments Inc. (Malvern, Pa.) model M4000 data acquisition system with Sensotec (Columbus, Ohio) model MBL 5514-02 transducers.
For studies with partial agonists or antagonists, tissues were preincubated with vehicle or antagonist for 45 min. All drugs were prepared daily in deionized water and kept on ice during the course of the experiment. The tissues were contracted by incubation with 10^-7 -10^-5 M carbamylcholine, and were relaxed by the addition of serotonin at 10^-8 -10^-10 M, which treatment relaxed the tissue and reduced the contraction caused by carbamylcholine. Addition of a compound of the present invention antagonized the serotonin response and reduced the observed relaxations of the tissue. Repeated tests of each compound at various concentrations were carried out, and the concentration that caused a two-fold shift of the relaxation curve was calculated. That concentration is reported here as the negative logarithm. In each case, the SEM of the data has been calculated and is shown below, as is the number of experiments carried out with each compound.
In the case of `CC(C)n1nc(C(=O)NCCN2CCC(NC(=O)C34CC5CC(C3)C(O)C(C5)C4)CC2)c2ccccc21` (centres unmarked) [Example 38, N-[2-(4-(4-hydroxy-1-adamantylcarbonylamino)-1-piperidinyl)ethyl]-1-(2-propyl)-1H-indazole-3-carboxamide oxalate], the Kb is reported as 2 nM. In the case of `CC(C)n1nc(C(=O)NCCN2CCCCC2)c2ccccc21` [Example 2, N-[2-(1-piperidinyl)ethyl]-1-(2-propyl)-1H-indazole-3-carboxamide hydrochloride], the Kb is reported as 10 nM. `CC(C)n1nc(C(=O)NCCN2CCC(NC(=O)NCc3ccccc3)CC2)c2ccccc21` [Example 34, N-[2-(4-benzylaminocarbonylamino)-1-piperidinyl)ethyl]-1-(2-propyl)-1H-indazole-3-carboxamide oxalate] showed a Kb of 5.01 nM. In the case of `CC(C)n1nc(C(=O)NCCN2CCC(NC(=O)C34CC5CC(CC(O)(C5)C3)C4)CC2)c2ccccc21` [Example 37, N-[2-(4-(3-hydroxy-1-adamantylcarbonylamino)-1-piperidinyl)ethyl]-1-(2-propyl)-1H-indazole-3-carboxamide oxalate], the Kb is reported as 1.26 nM. For `CC(C)n1nc(C(=O)NCCN2CCC(NC(=O)Cc3ccccc3)CC2)c2ccccc21` [Example 26, N-[2-(4-benzylcarbonylamino-1-piperidinyl)ethyl]-1-(2-propyl)-1H-indazole-3-carboxamide oxalate], the Kb was 3.98 nM. In the case of `CC(C)C(=O)NC1CCN(CCNC(=O)c2nn(C(C)C)c3ccccc23)CC1` [Example 32, N-[2-(4-isobutyrylamino-1-piperidinyl)ethyl]-1-(2-propyl)-1H-indazole-3-carboxamide oxalate], the Kb is reported as 2.51 nM. `CC(C)n1nc(C(=O)NCCN2CCC(NC(=O)c3ccccc3)CC2)c2ccccc21` [Example 25, N-[2-(4-benzoylamino-1-piperidinyl)ethyl]-1-(2-propyl)-1H-indazole-3-carboxamide oxalate] showed a Kb of 2.51 nM. In the case of `CC(C)n1nc(C(=O)NCCN2CCC(NS(C)(=O)=O)CC2)c2ccccc21` [Example 24, N-[2-(4-methylsulfonylamino-1-piperidinyl)ethyl]-1-(2-propyl)-1H-indazole-3-carboxamide oxalate], the Kb is reported as 12.6 nM. In the case of `CC(C)n1nc(C(=O)NCCN2CCC(NC(=O)C(C)(C)C)CC2)c2ccccc21` [Example 33, N-[2-(4-trimethylacetylamino-1-piperidinyl)ethyl]-1-(2-propyl)-1H-indazole-3-carboxamide oxalate], the Kb is reported as 3.16 nM. `CC(C)n1nc(C(=O)NCCN2CCN(C(=O)c3ccccc3)CC2)c2ccccc21` [Example 18, N-[2-(4-benzoyl-1-piperazinyl)ethyl]-1-(2-propyl)-1H-indazole-3-carboxamide oxalate] gave a Kb of 31.6 nM. In the case of `CC(C)n1nc(C(=O)NCCN2CCCCCC2)c2ccccc21` [Example 12, N-[2-(1-hexamethyleneiminyl)ethyl]-1-(2-propyl)-1H-indazole-3-carboxamide hydrochloride], the Kb is reported as 10 nM. `CCCC(=O)NC1CCN(CCNC(=O)c2nn(C(C)C)c3ccccc23)CC1` [Example 30, N-[2-(4-butyrylamino-1-piperidinyl)ethyl]-1-(2-propyl)-1H-indazole-3-carboxamide oxalate] gave a Kb of 15.8 nM. With `CC(C)n1nc(C(=O)NCCCCN2CCCCC2)c2ccccc21` [Example 6, N-[4-(1-piperidinyl)butyl]-1-(2-propyl)-1H-indazole-3-carboxamide oxalate] the Kb was 6.31 nM. In the case of `CC(C)n1nc(C(=O)NCCN2CCCC2)c2ccccc21` [Example 10, N-[2-(1-pyrrolidinyl)ethyl]-1-(2-propyl)-1H-indazole-3-carboxamide hydrochloride], the Kb is reported as 20 nM. With `CC(C)n1nc(C(=O)NCCN2CCC(Cc3ccccc3)CC2)c2ccccc21` [Example 20, N-[2-(4-benzyl-1-piperidinyl)ethyl]-1-(2-propyl)-1H-indazole-3-carboxamideoxalate] the Kb was 50.1 nM. With `CC(C)n1nc(C(=O)NCCN2CCC(NC(=O)OCc3ccccc3)CC2)c2ccccc21` [Example 8, N-[2-(4-benzyloxycarbonylamino-1-piperidinyl)ethyl]-1-(2-propyl)-1H-indazole-3-carboxamide oxalate] the Kb was 1.58 nM. In the case of `CC(C)n1nc(C(=O)NCCN2CCC(N)CC2)c2ccccc21` [Example 23, N-[2-(4-amino-1-piperidinyl)ethyl]-1-(2-propyl)-1H-indazole-3-carboxamide dioxalate], the Kb is reported as 158 nM. For `CC(C)n1nc(C(=O)NCCN2CCC(NC(=O)C34CC5CC(CC(C5)C3)C4)CC2)c2ccccc21` [Example 27, N-[2-(4-(1-adamantylcarbonylamino)-1-piperidinyl)ethyl]-1-(2-propyl)-1H-indazole-3-carboxamide oxalate], the Kb was 0.126 nM. With `CC(C)n1nc(C(=O)NCCCN2CCCCC2)c2ccccc21` [Example 4, N-[3-(1-piperidinyl)propyl]-1-(2-propyl)-1H-indazole-3-carboxamide hydrochloride] the Kb was 7.94 nM. In the case of `CC(=O)NC1CCN(CCNC(=O)c2nn(C(C)C)c3ccccc23)CC1` [Example 28, N-[2-(4-acetylamino-1-piperidinyl)ethyl]-1-(2-propyl)-1H-indazole-3-carboxamide oxalate], the Kb is reported as 5.01 nM. In the case of `CC(C)n1nc(C(=O)NCCN2CCN(Cc3ccccc3)CC2)c2ccccc21` [Example 16, N-[2-(4-benzyl-1-piperazinyl)ethyl]-1-(2-propyl)-1H-indazole-3-carboxamidedihydrochloride], the Kb is reported as 10 nM. Work on `CC(C)n1nc(C(=O)NCCN2CCc3ccccc3C2)c2ccccc21` [Example 22, N-[2-(1,2,3,4-tetrahydro-2-isoquinolinyl)ethyl]-1-(2-propyl)-1H-indazole-3-carboxamide oxalate] yielded a Kb of 10 nM. Work on `CC(C)n1nc(C(=O)NCCN2CCOCC2)c2ccccc21` [Example 14, N-[2-(4-morpholinyl)ethyl]-1-(2-propyl)-1H-indazole-3-carboxamide hydrochloride] yielded a Kb of 25.1 nM. `CCC(=O)NC1CCN(CCNC(=O)c2nn(C(C)C)c3ccccc23)CC1` [Example 29, N-[2-(4-propionylamino-1-piperidinyl)ethyl]-1-(2-propyl)-1H-indazole-3-carboxamide oxalate] gave a Kb of 3.16 nM. Molecule `CC(C)n1nc(C(=O)NCCN2CCC(NC(=O)Nc3ccc(F)cc3)CC2)c2ccccc21` [Example 36, N-[2-(4-(4-fluorophenylaminocarbonylamino)-1-piperidinyl)ethyl]-1-(2-propyl)-1H-indazole-3-carboxamide oxalate] has a Kb of 25.1 nM. Work on `CC(C)n1nc(C(=O)NCCN2CCC(NC(=O)Nc3ccccc3)CC2)c2ccccc21` [Example 35, N-[2-(4-phenylaminocarbonylamino)-1-piperidinyl)ethyl]-1-(2-propyl)-1H-indazole-3-carboxamide oxalate] yielded a Kb of 10 nM. Molecule `CCCCC(=O)NC1CCN(CCNC(=O)c2nn(C(C)C)c3ccccc23)CC1` [Example 31, N-[2-(4-valerylamino-1-piperidinyl)ethyl]-1-(2-propyl)-1H-indazole-3-carboxamide] has a Kb of 20 nM.

Same assay, conditions: negative logarithm of concentration that caused a two-fold shift of the serotonin relaxation curve; rat esophagus; 45 min preincubation; ± SEM (number of experiments); read-out: -Log KB (converted)
Molecule `O=C(NCCN1CCCCC1)c1n[nH]c2ccccc12` [Example 1, N-[2-(1-piperidinyl)ethyl]-1H-indazole-3-carboxamide hydrochloride] has a Kb of 31.6 nM.
